Source: patent US20250243488A1, “METHODS OF MODULATING PROGRANULIN EXPRESSION USING ANTISENSE OLIGONUCLEOTIDES TARGETING REGULATORY RNAS” (Camp4 Therapeutics Corporation, priority 2022, published 2025)
Oligonucleotides are written 5' to 3', each unit as a sugar letter and its base; * is a phosphorothioate linkage, no mark a phosphodiester; rarer units and linkages stand in square brackets, end groups in braces. Plain capitals give the bases only. e = 2'-O-(2-methoxyethyl) (MOE); l = locked nucleic acid (LNA); [5mC] = 5-methylcytosine; d = 2'-deoxy (DNA)

System: GRN mRNA
Test: GRN mRNA qPCR in SK-N-AS cells transfected with ASOs
Type: cell-based, human
Settings: SK-N-AS; for 120 nM FC (GRN mRNA) / hGRN mRNA FC: 120 nM
Protocol: The best ASOs based on increased GRN mRNA fold-change were selected for further characterization in dose titration studies. Briefly, human neuroblastoma SK-N-AS cells were transfected with 20 to 160 nM of ASOs CO-3423, CO-3431, CO-3463, and CO-3503. A steric non-targeting control ASO (sNTC) was used as a control. Cells were collected for mRNA analysis after 48 hours and GRN mRNA quantified by qPCR. Housekeeping genes for normalization were GAPDH and PPIA, and mRNA fold change (FC) was normalized to sNTC.
36 additional ASOs were designed with different modifications and base walking around selected ASOs. The effect of increasing doses of these ASOs was assessed in the human neuroblastoma cell line SK-N-AS following transfection. Relative GRN mRNA levels in SK-N-AS cells after treatment was assessed 48-hours post-transfection, and data from exemplary ASOs is shown in FIGS. 5A and 5B.
Additional chemical modifications, including LNA, modifications were made to CO-3423. SK-N-AS cells were transfected with increasing concentrations of the LNA/PS modified ASOs and GRN mRNA quantified by qPCR. ASOs including different LNA modifications of CO-3423 had similar efficacy (i.e, similar increased GRN mRNA expression). GRN mRNA was normalized to the average fold-change of cells treated with two steric non-targeting control ASOs (CO-3772 and CO-1589 (sNTC1)).
The effect of ASO length on GRN gene expression modulation was also investigated. SK-N-AS cells were transfected with increasing concentrations of the longer ASOs and GRN mRNA quantified by qPCR. Increasing the length of CO-3423 increased the potency of the ASO, as shown in Table 4. mRNA was normalized to the average fold change of cells treated with two steric non-targeting control ASOs (CO-3772 and CO-1589 (sNTC1)).
To determine whether variations in the PO/PS internucleotide bond linkages impacted the ability of CO-3423 and CO-3431 to modulate gene expression, several modified ASOs based on these parent ASOs were prepared. SK-N-AS cells were transfected with increasing concentrations of the mixed PO/PS bond ASOs described in Tables 5 and 6, and GRN mRNA quantified by qPCR.
GRN mRNA fold-change after treatment with mixed PO/PS bond versions of CO-3423 is shown in Table 5. mRNA was normalized to the average fold change of cells treated with steric nontargeting controls (CO-3772, CO-1589 (sNTC1), and CO-1929 (sNTC3)).
GRN mRNA fold-change after treatment with mixed PO/PS bond versions of CO-3431 is shown in Table 6. mRNA was normalized as described above.
To further assess the effect of additional modifications on the ability of CO-3423 parent ASO to modulate GRN gene expression, additional LNA tiling and PO bond modifications were incorporated to CO-3423. SK-N-AS cells were transfected with increasing concentrations of the modified ASOs and GRN mRNA quantified by qPCR. CO-3423 was used for comparison. GRN mRNA was normalized to the average fold-change of cells treated with a steric non-targeting control ASO, CO-1589 (sNTC1).
To further assess the effect of modifications on the ability of CO-3463 parent ASO to modulate GRN gene expression, ASOs based on this ASOS incorporating additional LNA modifications were prepared and compared to […]. SK-N-AS cells were transfected with increasing concentrations of the ASOs and GRN mRNA quantified by qPCR. GRN mRNA was normalized to the average fold-change of cells treated with a steric non-targeting control ASO, CO-1589 (sNTC1).
68 additional ASOs were designed to target intergenic enhancers (eRNA). 48 hours post-transfection, the cells were collected for GRN mRNA analysis using qPCR. CO-1589, a steric nontargeting control ASO, was used as a control. GRN mRNA was normalized to cells treated with CO-1589.
The best hits from these ASOs were tested in a dose escalation study. Cells were incubated for 48 hours. Subsequently, the cells were collected for mRNA quantification via RT-qPCR. […]

[1] = Table 12, normalized to CO-1589
[2] = Table 13, normalized to CO-1589
[3] = Table 11, 48 hours, normalized to CO-1589
[4] = Table 9, 48 hours post-transfection, normalized to CO-1589
[5] = Table 3, normalized to CO-3772 and CO-1589 (sNTC1)
[6] = Table 6, normalized to CO-3772, CO-1589 and CO-1929

| Substance | 30 nM FC (GRN mRNA) [1] | 60 nM FC (GRN mRNA) [1] | 120 nM FC (GRN mRNA) [1] | other results |
| --- | --- | --- | --- | --- |
| CO-6397: ASO based on parent ASO CO-3462 (antisense eT*eA*eG*eG*eA*lG*eA*eA*eT*e[5mC]*lG*e[5mC]*eT*eT*eT*lG*eG*eG*eA*eG) | 1.4 FC | 1.8 FC | 1.8 FC | – |
| CO-6420: ASO based on parent ASOs CO-4363 and CO-4364 (eG*eG*lA*e[5mC]*eT*lT*eG*eG*lG*eA*eG*lT*eG*eG*lT*eG*eA*l[5mC]*eT*eG*lA*eA*e[5mC]) | – | – | – | 30 nM FC (GRN mRNA) [2]: 1.4 FC; 60 nM FC (GRN mRNA) [2]: 2.7 FC; 120 nM FC (GRN mRNA) [2]: 2.2 FC |
| CO-6399: ASO based on parent ASO CO-3462 (antisense eG*eT*eA*eG*eG*eA*dG*dA*dA*dT*d[5mC]*dG*d[5mC]*dT*dT*dT*eG*eG*eG*eA*eG*e[5mC]) | 1.3 FC | 1.6 FC | 1.9 FC | – |
| CO-6438: ASO designed to target an intragenic enhancer RNA (eRNA) (e[5mC]*eT*eA*e[5mC]*eT*eG*eA*eG*e[5mC]*e[5mC]*eT*eG*eG*eA*eA*eG*eT*eG*eA*e[5mC]) | – | – | – | hGRN mRNA FC [3]: 1.2 FC |
| CO-6395: ASO based on parent ASO CO-3462 (antisense eT*eA*eG*eG*lA*eG*eA*eA*lT*e[5mC]*eG*e[5mC]*lT*eT*eT*eG*lG*eG*eA*eG) | 1.0 FC | 1.3 FC | 1.6 FC | – |
| CO-6382: ASO based on parent ASO CO-3462 (antisense e[5mC]*eT*eA*eT*eG*eA*eT*e[5mC]*eA*eG*e[5mC]*eT*eT*eG*eG*eG*e[5mC]*eG*eA*e[5mC]) | 0.8 FC | 0.8 FC | 0.9 FC | – |
| CO-6383: ASO based on parent ASO CO-3462 (antisense eT*eA*eG*eG*eA*dG*dA*dA*dT*d[5mC]*dG*d[5mC]*dT*dT*dT*eG*eG*eG*eA*eG) | 1.2 FC | 1.0 FC | 1.2 FC | – |
| CO-4636: ASO designed to target intergenic enhancers (eRNA) (antisense eG*eG*e[5mC]*eA*eA*eT*eT*eA*e[5mC]*eA*eT*eA*e[5mC]*eA*eT*eG*eA*eG*eG*eA) | – | – | – | hGRN mRNA FC [4]: 0.9 FC |
| CO-4356: LNA/PS modified ASO based on CO-3423 (antisense eG*eG*lA*e[5mC]*eT*lT*eG*eG*lG*eA*eG*lT*eG*eG*lT*eG*eA*l[5mC]*eT*eG) | – | – | – | 30 nM FC (GRN mRNA) [5]: 1.6 FC; 60 nM FC (GRN mRNA) [5]: 1.8 FC; 120 nM FC (GRN mRNA) [5]: 2.2 FC |
| CO-6432: ASO designed to target an intragenic enhancer RNA (eRNA) (eG*eA*eG*eA*eA*e[5mC]*eG*e[5mC]*eT*eA*e[5mC]*e[5mC]*eA*e[5mC]*eG*eG*eA*e[5mC]*e[5mC]*eT) | – | – | – | hGRN mRNA FC [3]: 1.0 FC |
| CO-4630: ASO designed to target intergenic enhancers (eRNA) (antisense eG*eT*e[5mC]*eT*eT*e[5mC]*eA*eA*eG*eA*eA*e[5mC]*eT*eT*eT*eA*e[5mC]*e[5mC]*eG*eA) | – | – | – | hGRN mRNA FC [4]: 1.0 FC |
| CO-4455: mixed PO/PS bond version of CO-3431 (antisense eA*eT*eTeGe[5mC]*eA*eG*eT*eG*eA*e[5mC]*eG*e[5mC]*e[5mC]*e[5mC]*e[5mC]eGeT*eT*eA) | – | – | – | 30 nM FC (GRN mRNA) [6]: 0.5 FC; 60 nM FC (GRN mRNA) [6]: 0.4 FC; 120 nM FC (GRN mRNA) [6]: 0.4 FC |
| CO-6406: ASO based on parent ASO CO-3462 (antisense eG*eG*eT*eA*eG*dG*dA*lG*dA*dA*lT*d[5mC]*dG*l[5mC]*dT*dT*lT*dG*dG*eG*eA*eG*e[5mC]*eA) | 1.4 FC | 1.4 FC | 1.7 FC | – |
| CO-4594: ASO designed to target intergenic enhancers (eRNA) (antisense eA*eA*eA*eG*eG*eA*e[5mC]*eG*e[5mC]*e[5mC]*eT*eT*e[5mC]*eT*e[5mC]*eT*e[5mC]*eG*eG*eG) | – | – | – | hGRN mRNA FC [4]: 1.3 FC |
| CO-4355: LNA/PS modified ASO based on CO-3423 (antisense eG*eG*lA*e[5mC]*lT*eT*lG*eG*lG*eA*lG*eT*lG*eG*lT*eG*lA*e[5mC]*eT*eG) | – | – | – | 30 nM FC (GRN mRNA) [5]: 1.6 FC; 60 nM FC (GRN mRNA) [5]: 1.8 FC; 120 nM FC (GRN mRNA) [5]: 1.9 FC |
| CO-6410: ASO based on parent ASO CO-3462 (antisense eT*eAeG*eG*eAeG*eA*eAeT*e[5mC]*eGe[5mC]*eT*eTeT*eG*eGeG*eA*eG) | 1.1 FC | 1.0 FC | 1.6 FC | – |
| CO-6400: ASO based on parent ASO CO-3462 (antisense eG*eT*eA*eG*eG*eA*eG*eA*eA*eT*e[5mC]*eG*e[5mC]*eT*eT*eT*eG*eG*eG*eA*eG*e[5mC]) | 1.1 FC | 1.3 FC | 1.3 FC | – |
| CO-6419: ASO based on parent ASOs CO-4363 and CO-4364 (eG*eG*eA*e[5mC]*eT*dT*dG*dG*dG*dA*dG*dT*dG*dG*dT*dG*dA*d[5mC]*eT*eG*eA*eA*e[5mC]) | – | – | – | 30 nM FC (GRN mRNA) [2]: 1.0 FC; 60 nM FC (GRN mRNA) [2]: 1.0 FC; 120 nM FC (GRN mRNA) [2]: 0.9 FC |
| CO-6398: ASO based on parent ASO CO-3462 (antisense eT*eA*eG*eG*lA*eG*eA*eA*eT*l[5mC]*eG*e[5mC]*eT*eT*lT*eG*eG*eG*eA*eG) | 1.3 FC | 1.5 FC | 1.8 FC | – |
| CO-4646: ASO designed to target intergenic enhancers (eRNA) (antisense eG*eT*eG*eT*eG*eA*eA*eA*eT*eG*eA*eT*eG*eG*eT*eA*e[5mC]*e[5mC]*eA*eG) | – | – | – | hGRN mRNA FC [4]: 1.3 FC |
| CO-6387: ASO based on parent ASO CO-3462 (antisense eT*eA*eG*eG*eA*dG*dA*dA*eT*d[5mC]*dG*e[5mC]*dT*dT*dT*eG*eG*eG*eA*eG) | 1.3 FC | 1.0 FC | 1.1 FC | – |
| CO-4603: ASO designed to target intergenic enhancers (eRNA) (antisense e[5mC]*e[5mC]*eA*e[5mC]*eT*eT*e[5mC]*eG*e[5mC]*eG*eT*eT*eT*eA*eG*eA*eA*e[5mC]*eT*eT) | – | – | – | hGRN mRNA FC [4]: 1.3 FC |
| CO-6423: ASO based on parent ASOs CO-4363 and CO-4364 (eG*eG*eA*e[5mC]*lT*eT*eG*eG*eG*lA*eG*eT*eG*eG*lT*eG*eA*e[5mC]*eT*lG*eA*eA*e[5mC]) | – | – | – | 30 nM FC (GRN mRNA) [2]: 1.2 FC; 60 nM FC (GRN mRNA) [2]: 2.6 FC; 120 nM FC (GRN mRNA) [2]: 2.8 FC |
